Values belong to the compound of their own block, whether it stands above or below them.
How the values were obtained:
[1] = tested on: DMS-53 human lung carcinoma; experiment: DMS-53 xenograft in nude mice, i.v. administration: tumour growth; format: in vivo, nude mice (BALBc nu/nu); conditions: 0.75 mg/kg
[2] = DMS-53 xenograft i.v. study: body and organ weights, haematology, histology; format: in vivo, nude mice (BALBc nu/nu)
[3] = tested on: DMS-53 human lung carcinoma; experiment: DMS-53 xenograft in nude mice, oral gavage: tumour growth; format: in vivo, nude mice (BALBc nu/nu); conditions: 10 mg/kg, 21 days
[4] = DMS-53 xenograft oral study: body and organ weights, haematology, biochemistry, histology; format: in vivo, nude mice (BALBc nu/nu)
[5] = tested on: PANC 1 human pancreatic carcinoma; experiment: PANC 1 xenograft in nude mice: tumour growth; format: in vivo, nude mice (BALBc nu/nu); conditions: for average tumour size (% of the original tumour size): after 6 weeks; for final tumour weight: after 43 days
Protocol: FIG. 5). […] (5 mg/kg) or vehicle control.

[6] = tested on: NDRG1; experiment: Western blot analysis, NDRG1 expression; format: cell-based; conditions: MIAPaCa-2 cells
Protocol: (§1) Western analysis was performed via established protocols (Gao, J. and D. R. Richardson (2001). Blood 98: 842-50). The primary antibodies used were against NDRG1 (Abcam; UK), p21, cyclin D1, transferrin receptor 1 (TfR1; Santa Cruz, CA, USA) and β-actin (Sigma-Aldrich), with secondary HRP-conjugated goat and mouse antibodies (Sigma-Aldrich).
(§2) Dp4cycH4mT was examined to determine whether it could up-regulate NDRG-1 expression. To further evaluate the effect of the chelator Dp4cycH4mT on other key molecules involved in cell cycle progression, the expression of the cyclin-dependent kinase inhibitor, p21, as well as cyclin D1 in MIAPaCa-2 cells was also examined.

[7] = tested on: cyclin D1; experiment: Western blot analysis, cyclin D1 levels; format: cell-based; conditions: MIAPaCa-2 cells
Protocol: as §1, §2

[8] = tested on: p21; experiment: Western blot analysis, p21 expression; format: cell-based; conditions: MIAPaCa-2 cells
Protocol: as §1, §2

[9] = tested on: methemoglobin (metHb); experiment: metHb formation in vivo; set-up: species or system C57BL6 mice; conditions: 6 mg/kg intravenously, blood taken after 30 min
Protocol: FIG. 13. Effect of thiosemicarbazone chelators on metHb-formation in vivo. MetHb after Dp44mT, Triapine® or Dp4cycH4mT treatment in vivo at a dose of 6 mg/kg administered intravenously via the tail vein. Mice in the control group were treated with vehicle alone. At 30 minutes post-administration, whole blood was collected for determination of metHb levels.
(§3) The levels of metHb and metMb in RBC lysates were determined using a Shimadzu UV-Vis spectrophotometer (UV-1800; Shimadzu Corporation, Kyoto, Japan) at 577 nm and 630 nm for metHb and metMb in accordance with published methods (Winterbourn CC and Carrell R W (1977). Biochem J 165: 141-148).
(§4) C57BL6 mice (7-8 weeks-old) were used under a protocol approved by the university of Sydney Animal Ethics Committee. Dp44mT, Triapine® or Dp4cycH4mT (all at 6 mg/kg) were dissolved in 30% propylene glycol/saline and administered iv via the tail vein. Subsequently, 30 min after administration, mice were anesthetized with isoflurane and blood samples obtained by cardiac puncture. Blood samples were lysed with 2.5 volumes of ultrapure water for metHb estimation. Mice were sacrificed with isoflurane, the heart exhaustively perfused with HBSS and Mb isolated.

[10] = tested on: metmyoglobin (metMb); experiment: metMb formation in vivo; set-up: species or system C57BL6 mice; conditions: 6 mg/kg intravenously, 30 min post-administration, heart
Protocol: FIG. 14. Effect of thiosemicarbazone chelators on metMb-formation in vivo. MetMb levels after Dp44mT Triapine® or Dp4cycH4mT treatment in vivo at a dose of 6 mg/kg administered intravenously via the tail vein. Mice in the control group were treated with vehicle alone. At 30 min post-administration, whole hearts were collected for determination of metMb levels.
Mouse heart tissue was exhaustively perfused with ice-cold HBSS to remove blood and homogenized in ice-cold HBSS containing protease inhibitor cocktail (Roche, Basel, Switzerland). Heart homogenates were centrifuged (16,000×xg/45 min/4° C.) and the supernatant ([oxyMb]=50 μM) used immediately.
as §3, §4

[11] = mouse, in vivo
[12] = tested on: MIAPaCa-2 pancreatic cancer cells; experiment: MTT proliferation assay, MIAPaCa-2; format: cell-based; conditions: Homo sapiens, MIA PaCa-2; MIAPaCa-2, MTT, 72 h
Protocol: (§5) The pancreatic cancer cell lines, including MIAPaCa-2, PANC 1, CAPAN-2 and CFPAC-1 were a generous gift from Prof. Andrew Biankin (Garvan Institute, NSW, Australia). The MIAPaCa-2, PANC 1 and CFPAC-1 cell lines were grown in DMEM medium (Invitrogen) and CAPAN-2 cells were grown in McCoy's medium (Invitrogen). All media was supplemented with 10% (v/v) fetal calf serum (Invitrogen), 1% (v/v) non-essential amino acids (Invitrogen), 1% (v/v) sodium pyruvate (Invitrogen), 2 mM L-glutamine (Invitrogen), 100 μg/mL of streptomycin (Invitrogen), 100 U/ml penicillin (Invitrogen), and 0.28 μg/mL of fungizone.
(§6) To further examine the spectrum of anti-proliferative activity, Dp4cycH4mT was tested against pancreatic cancer in vitro, performing MTT proliferation assays with PANC 1, MIAPaCa-2, CFPAC-1 and CAPAN-2 pancreatic cancer cells. As a comparison, currently used treatments for pancreatic cancer including gemcitabine and 5-fluorouracil were also tested. The iron chelator, DFO, was included as a positive control.
(§7) Table 2A. Anti-proliferative activity of Dp4cycH4mT against pancreatic cancer cell lines. Growth and antiproliferative activity IC50 (μM) values of Dp4cycH4mT in a variety of pancreatic cell lines and in comparison to DFO and the clinically used drugs gemcitabine and 5-fluorouracil as determined by the MTT assay. Cells were seeded and allowed to attach to wells for 24 h and then incubated for 72 h at 37° C. with control medium or the chelators. Results are mean±SD (3 experiments).
as §7, with “2B.” for “2A.”, “IC90” for “Growth and antiproliferative activity IC50”

[13] = tested on: PANC 1 pancreatic cancer cells; experiment: MTT proliferation assay, PANC 1; format: cell-based; conditions: Homo sapiens; PANC 1, MTT, 72 h
Protocol: as §5, §6, §7
as §7, with “2B.” for “2A.”, “IC90” for “Growth and antiproliferative activity IC50”

[14] = tested on: CAPAN-2 pancreatic cancer cells; experiment: MTT proliferation assay, CAPAN-2; format: cell-based; conditions: Homo sapiens; CAPAN-2, MTT, 72 h
Protocol: as §5, §6, §7
as §7, with “2B.” for “2A.”, “IC90” for “Growth and antiproliferative activity IC50”

[15] = tested on: CFPAC-1 pancreatic cancer cells; experiment: MTT proliferation assay, CFPAC-1; format: cell-based; conditions: Homo sapiens; CFPAC-1, MTT, 72 h
Protocol: as §5, §6, §7
as §7, with “2B.” for “2A.”, “IC90” for “Growth and antiproliferative activity IC50”

[16] = tested on: transferrin receptor 1 (TfR1); experiment: Western blot analysis, transferrin receptor 1 levels; format: cell-based; conditions: MIAPaCa-2 cells
Protocol: as §1, §2

[17] = tested on: human RBCs (methemoglobin formation); format: cell-based; conditions: 3 h, 25 μM
Protocol: FIG. 12. Effect of DFO and thiosemicarbazone chelators on metHb-formation in vitro. Whole RBCs were incubated with 1-25 μM chelator at 37° C. for 3 h. Cells were lysed with ultra-pure H2O and metHb levels were measured spectrophotometrically. Results are the mean±SD from 3 experiments.
Whole blood samples were collected from healthy human donors or mice in suitable blood collection tubes containing EDTA and used immediately. Red blood cells (RBCs) were isolated by centrifugation (480 xg/5 min/4° C.) then washed in Hank's balanced salt solution (HBSS). RBCs were resuspended 1:1 in HBSS and whole RBC assays were carried out at 37° C.
as §3
The effect of chelator concentration (1-25 μM) on metHb-generation with intact RBCs was assessed (FIG. 12). […] At 25 μM, these chelators increased metHb formation to 19.95±1.0 and 19.9±3.0% of total Hb, respectively (FIG. 12). The negative control chelator Dp2mT, by design, features a methyl group that hinders complex formation. Accordingly, this chelator cannot participate in the redox-interaction with iron that gives rise to metHb formation (FIG. 12).

[18] = gemcitabine 5 mg/kg intra-peritoneally every 3rd day

histology of the liver, spleen, kidney, brain or tumour (H & E) vs control ([2]; 2 weeks i.v., Dp44mT 0.75 mg/kg, Dp4e4mT.HCl 4 and 6 mg/kg): no significant differences
myocardial lesions (Gomori-Trichrome stain) ([2]; 2 weeks i.v., Dp44mT 0.75 mg/kg, Dp4e4mT.HCl 4 or 6 mg/kg): myocardial lesions were observed
change in red blood cell count, haemoglobin or white blood cell count ([2]; after 2 weeks, Dp44mT 0.75 mg/kg, Dp4e4mT.HCl 1.5, 4 or 6 mg/kg i.v.): no significant change
HCT ([2]; i.v., 0.75 mg, average): 0.43
HGB ([2]; i.v., 0.75 mg, average): 135.50 g/L
PLT ([2]; i.v., 0.75 mg, average): 1274.50 10 × 9 cells/L
RBC ([2]; i.v., 0.75 mg, average): 9.87 10 × 12 cells/L
WBC ([2]; i.v., 0.75 mg, average): 5.38 10 × 9 cells/L
Brain weight ([2]; i.v., 0.75 mg/kg): 0.32 ± 0.01 g
Heart weight ([2]; i.v., 0.75 mg/kg): 0.11 ± 0.01 g
Kidney weight ([2]; i.v., 0.75 mg/kg): 0.23 ± 0.01 g
Liver weight ([2]; i.v., 0.75 mg/kg): 1.04 ± 0.05 g
Spleen weight ([2]; i.v., 0.75 mg/kg): 0.13 ± 0.02 g
weight loss (% of initial weight) ([2]; i.v., 0.75 mg/kg): 9%
myocardial lesions (Gomori-Trichrome stain) ([4]; Dp44mT 0.75 mg/kg, Dp4e4mT.HCl 3 weeks at 2.5, 5, 7.5 and 10 mg/kg oral): myocardial lesions were observed
histology of the liver, spleen, kidney, brain or tumour (H & E) vs control ([4]; Dp44mT 2 weeks at 0.75 mg/kg, Dp4e4mT.HCl 3 weeks at 2.5, 5, 7.5 and 10 mg/kg oral): no significant differences
Brain weight ([4]; oral, 10 mg/kg): 0.363 ± 0.008 g
Heart weight ([4]; oral, 10 mg/kg): 0.102 ± 0.005 g
Kidney weight ([4]; oral, 10 mg/kg): 0.208 ± 0.004 g
Liver weight ([4]; oral, 10 mg/kg): 0.88 ± 0.02 g
Lung weight ([4]; oral, 10 mg/kg): 0.133 ± 0.008 g
Spleen weight ([4]; oral, 10 mg/kg): 0.081 ± 0.005 g
metHb (% of total Hb) [9]: 6.3±0.8 % of total Hb
levels of metMb [10]: 82.3±2.6%
KIDNEY Fe (score for presence of iron stained by Perl's stain) [11]: +/−
SPLEEN HPC (score for the presence of haematopoietic cells in the splenic red pulp) [11]: N
iron deposits in the kidney [11]: iron deposits were observed
Structure (SMILES): CN(C)C(=S)NN=C(c1ccccn1)c1ccccn1 [Dp44mT, di-2-pyridylketone 4,4-dimethyl-3-thiosemicarbazone, reference compound]
Tumour weight [1]: 0.1 ± 0.02 g
net tumour size (% of the initial tumour volume) ([1]; after 25 days): 122%
Body weight (% of initial weight) ([2]; i.v., 0.75 mg/kg): 91.01 ± 5.3 % initial weight
Tumour weight [3]: 0.46 ± 0.1 g
Body weight (% initial) ([4]; oral, 10 mg/kg): 93.6 ± 1.8 % initial
average tumour size (% of the original tumour size) ([5]; 0.4 mg/kg i.v. 5 days/week): 305%
final tumour weight ([5]; 0.4 mg/kg i.v.): 122 ± 33 mg
NDRG1 expression [6]: significantly (p<0.01) up-regulated
cyclin D1 levels [7]: significantly (p<0.05) reduced
p21 expression [8]: markedly (p<0.05) increasing

IC50 [12]: 0.02 ± 0.005 µM
IC90 [12]: > 5 µM
IC50 [13]: 11 ± 0.8 µM
IC90 [13]: > 5 µM
IC50 [14]: 40.8 ± 4.7 µM
IC90 [14]: > 5 µM
IC50 [15]: 0.02 ± 0.02 µM
IC90 [15]: 30.4 ± 2.2 µM
KIDNEY Fe (score for presence of iron stained by Perl's stain) [11]: −
LIVER HP (histopathological changes) [11]: N
LUNG HP (histopathological changes) [11]: N
MYOCARDIUM Fibrosis [11]: −
MYOCARDIUM HP (histopathological changes) [11]: N
SPLEEN HPC (score for the presence of haematopoietic cells in the splenic red pulp) [11]: N
iron deposits in the kidney [11]: no evidence of iron deposits
Structure (SMILES): Nc1ccn([C@@H]2O[C@H](CO)[C@@H](O)C2(F)F)c(=O)n1 [Gemcitabine, gemcitabine]
Tumour weight ([5]; Gemcitabine 5 mg/kg/day): 0.07 ± 0.02 g
average tumour size (% of the original tumour size) [5, 18]: 319%
final tumour weight [5, 18]: 67 ± 25 mg
NDRG1 expression [6]: no marked effect
cyclin D1 levels [7]: did not modulate
p21 expression [8]: did not modulate
TfR1 levels [16]: did not modulate

Structure (SMILES): NC(=S)NN=Cc1ncccc1N [Triapine®, 3-aminopyridine-2-carboxaldehyde thiosemicarbazone]
metHb formation (% of total Hb) [17]: 19.95±1.0 % of total Hb
levels of metMb [10]: 75.2±4.2%

Source: US8927580B2, “Thiosemicarbazone compounds and use in the treatment of cancer” (Oncochel Therapeutics LLC, priority 2010, dated 2015)
